From publication PMC9503459, “Antifungal Activity, Structural Stability, and Immunomodulatory Effects on Human Immune Cells of Defensin from the Lentil Lens culinaris” (Membranes, 2022)
No end group written: not given here.

Experiments:
[1] = test system: CD8+ T cytotoxic cells; experiment: Cytokine response by multiplex xMAP, CD8+ T cytotoxic cells; format: cell-based, human; details: 2 µM, 24 h
Procedure: Colorectal adenocarcinoma Caco-2 cell line (ATCC HTB-37) was cultured in complete DMEM/F12 (1:1) medium containing 10% fetal bovine serum (FBS, Gibco) and 1X antibiotic-antimycotic solution (1XAAS, Invitrogen, Waltham, MA, USA). The acute monocytic leukemia THP-1 line (ATCC TIB-202) was cultured in complete RPMI-1640 medium, containing 10% FBS, 1XAAS, and […]. THP-1 cells were differentiated into pro-inflammatory macrophages (Mφ1) with phorbol 12-myristate 13-acetate (Sigma-Aldrich) for 24 h and subsequently polarized with lipopolysaccharide from E. coli (Sigma-Aldrich) and rhIFN-γ (Sigma-Aldrich) for another 48 h according to previously reported protocol. All cells were cultured in a humidified CO2 incubator (5% CO2, 37 °C). Primary peripheral blood mononuclear cells (PBMCs) collected from a healthy donor were purchased from American Type Culture Collection (ATCC PCS-800-011). CD4^+ T-helper and CD8^+ T cytotoxic cells were isolated from PBMCs by magnetic separation with mouse anti-human CD4-PE (clone 13B8.2, Beckman Coulter Diagnostics, Pasadena, CA, USA) and CD8-PE (clone REA734, Miltenyi Biotec, Bergisch Gladbach, Germany), Anti-PE MicroBeads (Miltenyi Biotec), and LS Separation Columns (Miltenyi Biotec). Isolated CD4^+ and CD8^+ cells were expanded separately with Dynabeads™ Human T-Expander CD3/CD28 (Gibco, Waltham, MA, USA) in RPMI-1640 supplemented with 10% FBS, 1XAAS and 100 U/mL rh-IL-2 (Gibco). Regulatory CD4^+ FoxP3^+ T cells (Tregs) were isolated from PBMCs by magnetic separation with CD4^+CD25^+ Regulatory T Cell Isolation Kit, human (Miltenyi Biotec). Primary CD14^+ blood monocytes were isolated from PBMCs by adherence according to standard technique. Monocyte-derived mature dendritic cells (moDCs) were obtained from CD14^+ blood monocytes according to the previously reported protocol. Briefly, blood monocytes were incubated in complete RPMI-1640 medium, containing 10% FBS, 1XAAS, 800 U/mL rhGM-CSF (Sci-Store, Russia, Moscow) and 500 U/mL rhIL-4 (Sci-Store) for 3 days. Fresh complete RPMI-1640 medium with rhGM-CSF and rhIL-4 was added to the culture on day 3. On day 5, fresh complete RPMI-1640 containing 100 U/mL rhTNF-α (Sigma) as well as 800 U/mL rhGM-CSF and 500 U/mL rhIL-4 was added and the culture was incubated for another 4 days until full maturation.
Caco-2 cells were seeded into the wells of a 48-well plate, coated with 0.1% bovine collagen (Sigma-Aldrich) for 24 h, 3 weeks before the experiment with complete DMEM/F12 (1:1) medium renewal every 2–3 days. Monocytes, moDCs, CD4^+ T-helper and CD8^+ T cytotoxic cells, Mφ1, and Regulatory CD4^+ FoxP3^+ T cells were seeded into the wells of 48-well plates in the complete RPMI-1640 medium supplemented with 10% Human AB serum (HABS, Capricorn Scientific, Ebsdorfergrund, Germany) and 1XAAS 24 h prior to the experiment; medium in Caco-2-containing wells was also replaced with the same medium. After 24 h, half of the medium in each well was replaced by fresh complete RPMI-1640 medium with 10% HABS, supplemented with 4 µM of Lc-def for the sample wells or fresh medium alone for the control wells. Cell cultures were kept in CO2-incubator (5% CO2, 37 °C) for another 24 h. Culture supernatants were collected 24 h later and stored at −70 °C degrees less than one month prior to the analytes assessment. […]

[2] = test system: proteolytic enzymes of Candida albicans; experiment: Influence of defensins on degradation of proteins by C. albicans lysate; format: biochemical; details: SDS-PAGE
Procedure: For study of Lc-def sensitivity to the clinical isolate of C. albicans, lysates of yeast cells in different concentration and pH were used basically as previously described for rhesus macaque θ-defensin 1 [22]. Cells were inoculated onto modified YPD medium and grown at 37 ℃ for 48 h before reaching the stationary phase of growth. Cells were harvested by centrifugation, washed two times in sterile phosphate buffered saline (PBS), pH 7.2, or sterile 40 mM sodium acetate, pH 4.0, and resuspended in the corresponding buffer to final concentrations of 1 × 10^9 cells/mL or 1 × 10^3 cells/mL. Two freeze-thaw cycles in liquid nitrogen were used for cell disruption, and supernatants were collected following centrifugation. Supernatants (12.5 μL) were mixed with water solutions (37.5 μL) of Lc-def, α-casein, Psd1, or LL-37 in concentration of 0.67 mg/mL and incubated at 37 ℃ for 72 or 24 h in the case of high or low cell concentration, respectively. To study the possible influence of Lc-def and Psd1 on the degradation process, supernatants (12.5 μL) were mixed with both α-casein or LL-37 in concentration of 1 mg/mL (25 μL) and Lc-def or Psd1 in concentration of 2 mg/mL (12.5 μL). As negative controls, α-casein and peptides were mixed with buffers as well as supernatants were mixed with water without the proteins. The samples were mixed with sample buffer without β-mercaptoethanol (BME), heated at 100 ℃ for 2 min, and analyzed by sodium dodecyl sulfate polyacrylamide gel electrophoresis (SDS-PAGE). Some independent experiments were performed in each case.

[3] = C. albicans lysate 10^3 cells/mL, pH 7.2, up to 24 h

Substance: Lc-def: defensin from lentil Lens culinaris seeds (UniProt:B3F051), recombinant, overexpressed in Escherichia coli (KTCENLSDSFKGPCIPDGNCNKHCKEKEHLLSGRCRDDFRCWCTRNC; disulfide (positions not given here); ends not checked; also: disulfide bonds present, pairing not given here; UniProt B3F051 28-74, looked up)
- EGF [1]: <1.95↓ pg/ml
- Eotaxin [1]: <3.23↓ pg/ml
- FGF-2 [1]: 0 pg/mL
- FLT-3L [1]: <0.45↓ pg/ml
- Fractalkine [1]: <23.19↓ pg/ml
- G-CSF [1]: <2.57↓ pg/ml
- GM-CSF [1]: <1.36↓ pg/ml
- GROa [1]: <0.67↓ pg/ml
- IFNa2 [1]: <4.43↓ pg/ml
- IFNg [1]: <1.99↓ pg/ml
- IL-1RA [1]: <0.83↓ pg/ml
- IL-1a [1]: 9 pg/mL
- IL-1b [1]: <18.72↓ pg/ml
- IL-2 [1]: <0.31↓ pg/ml
- IL-3 [1]: <0.48↓ pg/ml
- IL-4 [1]: <0.31↓ pg/ml
- IL-5 [1]: 9.01 pg/mL
- IL-6 [1]: <0.30↓ pg/ml
- IL-7 [1]: <0.33↓ pg/ml
- IL-8 [1]: <0.49↓ pg/ml
- IL-9 [1]: <1.05↓ pg/ml
- IL-10 [1]: <0.68↓ pg/ml
- IL-12 (p40) [1]: <3.02↓ pg/ml
- IL-12 (p70) [1]: <1.48↓ pg/ml
- IL-13 [1]: <5.00↓ pg/ml
- IL-15 [1]: <1.45↓ pg/ml
- IL-17A [1]: <1.55↓ pg/ml
- IL-17E/IL-25 [1]: <20.59↓ pg/ml
- IL-17F [1]: <16.96↓ pg/ml
- IL-18 [1]: <0.35↓ pg/ml
- IL-22 [1]: <8.31↓ pg/ml
- IL-27 [1]: <8.55↓ pg/ml
- IP-10 [1]: <1.56↓ pg/ml
- M-GSF [1]: <23.75↓ pg/ml
- MCP-1 [1]: <1.52↓ pg/ml
- MCP-3 [1]: <3.95↓ pg/ml
- MDC [1]: <0.35↓ pg/ml
- MIG [1]: <3.43↓ pg/ml
- MIP-1a [1]: <1.76↓ pg/ml
- MIP-1b [1]: <1.92↓ pg/ml
- PDGF-AA [1]: <7.38↓ pg/ml
- PDGF-AB/BB [1]: <9.75↓ pg/ml
- RANTES [1]: 366.74 pg/mL
- TGF-a [1]: <0.66↓ pg/ml
- TNFa [1]: <3.91↓ pg/ml
- TNFb [1]: <0.73↓ pg/ml
- VEGFa [1]: <1.27↓ pg/ml
- effects on cytokine production [1]: No effects
- sCD40L [1]: <6.66↓ pg/ml
- influence on LL-37 degradation [2, 3]: did not decrease LL-37 degradation
- influence on the rate of α-casein degradation [2, 3]: decreased the rate of α-casein degradation
- influence on degradation of the major protein of C. albicans ([2]; C. albicans lysate 10^9 cells/mL): decrease in degradation
